Target: T1, human TRPV3 (Homo sapiens, UniProt Q8NET8)
T1 construct: expressed in transfected cells; host or cells: HEK293
T1 sequence (Q8NET8 1-790): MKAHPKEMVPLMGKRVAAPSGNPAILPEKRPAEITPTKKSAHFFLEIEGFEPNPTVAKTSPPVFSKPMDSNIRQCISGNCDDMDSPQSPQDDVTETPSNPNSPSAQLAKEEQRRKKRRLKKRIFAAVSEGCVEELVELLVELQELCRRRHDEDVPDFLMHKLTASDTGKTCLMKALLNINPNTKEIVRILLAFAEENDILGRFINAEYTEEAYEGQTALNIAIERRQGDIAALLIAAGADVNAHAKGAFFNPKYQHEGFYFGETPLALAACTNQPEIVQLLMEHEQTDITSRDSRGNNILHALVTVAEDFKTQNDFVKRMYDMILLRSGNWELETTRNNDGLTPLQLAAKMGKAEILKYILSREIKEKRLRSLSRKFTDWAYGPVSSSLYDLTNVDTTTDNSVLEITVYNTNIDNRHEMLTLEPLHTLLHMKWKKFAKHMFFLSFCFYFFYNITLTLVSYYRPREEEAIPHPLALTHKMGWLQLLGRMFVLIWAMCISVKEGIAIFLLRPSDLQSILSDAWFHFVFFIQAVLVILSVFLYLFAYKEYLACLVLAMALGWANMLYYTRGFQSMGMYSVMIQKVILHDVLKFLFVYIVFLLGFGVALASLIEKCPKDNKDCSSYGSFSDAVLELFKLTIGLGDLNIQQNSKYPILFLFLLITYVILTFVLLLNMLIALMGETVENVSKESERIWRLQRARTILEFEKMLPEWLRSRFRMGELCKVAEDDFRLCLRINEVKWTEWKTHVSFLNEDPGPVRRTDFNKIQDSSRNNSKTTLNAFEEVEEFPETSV
Test: Calcium flux assay (FLIPR TETRA), recombinant HEK293 cells expressing TRPV3, 2-APB response
Format: cell-based
Details: 2-APB at its EC80
Protocol: (i) In Vitro Methods-Calcium Flux Assays:
Experiments were conducted using the FLIPR TETRA®. On the day prior to the experiment, recombinant HEK293 cells that stably express human and mouse TRPV3 were removed from tissue culture flasks and plated in growth medium at 20,000 cells/well into black-walled clear-bottom 384-well BIOCOAT™ poly-D-lysine assay plates (BD Biosciences, Bedford, Mass.) using a MULTIDROP® dispenser (ThermoScientific, Waltham, Mass.). On the day of the experiment, growth medium was removed, and the no-wash FLIPR® Calcium-4 dye (λEX=470-495 nm, λEM=515-575 nm; Molecular Devices, Sunnyvale, Calif.) was added to each well using the MULTIDROP® dispenser. Cells were incubated for 90-120 minutes in the dark. The compounds were dissolved in DMSO to prepare a 10 mM stock solution. The intensity of the fluorescence was captured and digitally transferred to an interfaced PC. The peak increase in fluorescence over baseline, measured in relative fluorescence units, was calculated and expressed as the percentage of the maximal 2-APB (2-aminoethoxyldiphenyl borate) response (in the absence of compound). The concentration of 2-APB corresponds to its EC80.

SMILES	IC50 [nM]
COc1ncnc(OC)c1C(=O)Nc1nc(C(F)(F)F)c(C2=CCN(S(C)(=O)=O)CC2)s1 [Example 165, 4,6-dimethoxy-N-{5-[1-(methylsulfonyl)-1,2,3,6-tetrahydropyridin-4-yl]-4-(trifluoromethyl)-1,3-thiazol-2-yl}pyrimidine-5-carboxamide]	500 to 1000
COc1ncnc(OC)c1C(=O)Nc1nc(-c2ccc(C(F)(F)F)cn2)c(C2(C)OCCO2)s1 [Example 90, 4,6-dimethoxy-N-{5-(2-methyl-1,3-dioxolan-2-yl)-4-[5-(trifluoromethyl)pyridin-2-yl]-1,3-thiazol-2-yl}pyrimidine-5-carboxamide]	50 to 100
COc1ncnc(OC)c1C(=O)Nc1nc(/C=C/C2CC2)cs1 [Example 103, N-{4-[(E)-2-cyclopropylethenyl]-1,3-thiazol-2-yl}-4,6-dimethoxypyrimidine-5-carboxamide]	> 1000
COc1ncnc(OC)c1C(=O)Nc1nc(C(F)(F)F)c(C)s1 [Example 1, 4,6-dimethoxy-N-[5-methyl-4-(trifluoromethyl)-1,3-thiazol-2-yl]pyrimidine-5-carboxamide]	50 to 100
COc1ncnc(O)c1C(=O)Nc1nc(-c2ccc(C(F)(F)F)cn2)c(C(=O)N(C)C)s1 [Example 79, N-{5-(dimethylcarbamoyl)-4-[5-(trifluoromethyl)pyridin-2-yl]-1,3-thiazol-2-yl}-4-hydroxy-6-methoxypyrimidine-5-carboxamide]	> 1000
COc1ncnc(OC)c1C(=O)Nc1nc(C(F)(F)F)c(CN2CC[C@@H](OC)C2)s1 [Example 60, 4,6-dimethoxy-N-[5-{[(3R)-3-methoxypyrrolidin-1-yl]methyl}-4-(trifluoromethyl)-1,3-thiazol-2-yl]pyrimidine-5-carboxamide]	500 to 1000
COc1ncnc(OC)c1C(=O)Nc1nc(C(F)(F)F)c(-c2cnc(C#N)nc2)s1 [Example 162, N-[5-(2-cyanopyrimidin-5-yl)-4-(trifluoromethyl)-1,3-thiazol-2-yl]-4,6-dimethoxypyrimidine-5-carboxamide]	100 to 500
COc1ncnc(OC)c1C(=O)Nc1nc(C(F)(F)F)c(/C(=N/O)c2ccccn2)s1 [Example 128, N-{5-[(E)-(hydroxyimino)(pyridin-2-yl)methyl]-4-(trifluoromethyl)-1,3-thiazol-2-yl}-4,6-dimethoxypyrimidine-5-carboxamide]	100 to 500
COc1ncnc(OC)c1C(=O)Nc1nc(C(F)(F)F)c(C#CC(C)(C)O)s1 [Example 19, N-[5-(3-hydroxy-3-methylbut-1-yn-1-yl)-4-(trifluoromethyl)-1,3-thiazol-2-yl]-4,6-dimethoxypyrimidine-5-carboxamide]	50 to 100
COc1ncnc(OC)c1C(=O)Nc1nc(C(F)(F)F)c(C2=COCC2)s1 [Example 145, N-(5-(4,5-dihydrofuran-3-yl)-4-(trifluoromethyl)thiazol-2-yl)-4,6-dimethoxypyrimidine-5-carboxamide]	< 50
COc1ncnc(OC)c1C(=O)Nc1nc(C(F)(F)F)c(-c2cccc(F)c2C#N)s1 [Example 25, N-[5-(2-cyano-3-fluorophenyl)-4-(trifluoromethyl)-1,3-thiazol-2-yl]-4,6-dimethoxypyrimidine-5-carboxamide]	< 50
CCn1nccc1-c1sc(NC(=O)c2c(OC)ncnc2OC)nc1C(F)(F)F [Example 142, N-[5-(1-ethyl-1H-pyrazol-5-yl)-4-(trifluoromethyl)-1,3-thiazol-2-yl]-4,6-dimethoxypyrimidine-5-carboxamide]	100 to 500
COc1ncnc(OC)c1C(=O)Nc1nc(C)c(C)s1 [Example 9, N-(4,5-dimethyl-1,3-thiazol-2-yl)-4,6-dimethoxypyrimidine-5-carboxamide]	> 1000
COc1ncnc(OC)c1C(=O)Nc1nc(-c2ccc(C(F)(F)F)cn2)c(C(C)O)s1 (single isomer, unassigned) [Example 84, N-{5-[(1S*)-1-hydroxyethyl]-4-[5-(trifluoromethyl)pyridin-2-yl]-1,3-thiazol-2-yl}-4,6-dimethoxypyrimidine-5-carboxamide]	100 to 500
COc1ncnc(OC)c1C(=O)Nc1nc(-c2ccc(OC(F)(F)F)cc2)cs1 [Example 93, 4,6-dimethoxy-N-{4-[4-(trifluoromethoxy)phenyl]-1,3-thiazol-2-yl}pyrimidine-5-carboxamide]	100 to 500
COc1ncnc(OC)c1C(=O)Nc1nc(C(F)(F)F)c(-c2ccc(Cl)cc2)s1 [Example 4, N-[5-(4-chlorophenyl)-4-(trifluoromethyl)-1,3-thiazol-2-yl]-4,6-dimethoxypyrimidine-5-carboxamide]	50 to 100
COc1ncnc(OC)c1C(=O)Nc1nc(C(F)(F)F)c(-c2ccnc(C(F)(F)F)c2)s1 [Example 166, 4,6-dimethoxy-N-{4-(trifluoromethyl)-5-[2-(trifluoromethyl)pyridin-4-yl]-1,3-thiazol-2-yl}pyrimidine-5-carboxamide]	50 to 100
COc1ncnc(OC)c1C(=O)Nc1nc(-c2ccc(C(F)(F)F)cn2)c(CO)s1 [Example 80, N-{5-(hydroxymethyl)-4-[5-(trifluoromethyl)pyridin-2-yl]-1,3-thiazol-2-yl}-4,6-dimethoxypyrimidine-5-carboxamide]	50 to 100
COc1ncnc(OC)c1C(=O)Nc1nc(C2CCC(F)(F)CC2)cs1 [Example 99, N-[4-(4,4-difluorocyclohexyl)-1,3-thiazol-2-yl]-4,6-dimethoxypyrimidine-5-carboxamide]	100 to 500
COc1cc(C#N)ccc1-c1sc(NC(=O)c2c(OC)ncnc2OC)nc1C(F)(F)F [Example 43, N-[5-(4-cyano-2-methoxyphenyl)-4-(trifluoromethyl)-1,3-thiazol-2-yl]-4,6-dimethoxypyrimidine-5-carboxamide]	< 50
COc1ncnc(OC)c1C(=O)Nc1nc(C(F)(F)F)c(-c2cnn(CC3CC3)c2)s1 [Example 175, N-{5-[1-(cyclopropylmethyl)-1H-pyrazol-4-yl]-4-(trifluoromethyl)-1,3-thiazol-2-yl}-4,6-dimethoxypyrimidine-5-carboxamide]	< 50
COC/C=C\c1sc(NC(=O)c2c(OC)ncnc2OC)nc1C(F)(F)F [Example 17, 4,6-dimethoxy-N-{5-[(1Z)-3-methoxyprop-1-en-1-yl]-4-(trifluoromethyl)-1,3-thiazol-2-yl}pyrimidine-5-carboxamide]	< 50
COc1ncnc(OC)c1C(=O)Nc1nc(C(F)(F)F)c(I)s1 [Example 2, N-[5-iodo-4-(trifluoromethyl)-1,3-thiazol-2-yl]-4,6-dimethoxypyrimidine-5-carboxamide]	< 50
COc1ncnc(OC)c1C(=O)Nc1nc(C(F)(F)F)c(C2=CCC(C#N)CC2)s1 (centres unmarked) [Example 164, N-[5-(4-cyanocyclohex-1-en-1-yl)-4-(trifluoromethyl)-1,3-thiazol-2-yl]-4,6-dimethoxypyrimidine-5-carboxamide]	100 to 500
CCOc1ncnc(OCC)c1C(=O)Nc1nc(C(F)(F)F)c(C#N)s1 [Example 7, N-[5-cyano-4-(trifluoromethyl)-1,3-thiazol-2-yl]-4,6-diethoxypyrimidine-5-carboxamide]	500 to 1000
COc1ncnc(OC)c1C(=O)Nc1nc(C(F)(F)F)c([S+]([O-])Cc2ccccc2)s1 (centres unmarked) [Example 112, N-(5-(benzylsulfinyl)-4-(trifluoromethyl)thiazol-2-yl)-4,6-dimethoxypyrimidine-5-carboxamide]	> 1000
COc1ncnc(OC)c1C(=O)Nc1nc(C(F)(F)F)c(CN2CC[C@H](OC)C2)s1 [Example 59, 4,6-dimethoxy-N-[5-{[(3S)-3-methoxypyrrolidin-1-yl]methyl}-4-(trifluoromethyl)-1,3-thiazol-2-yl]pyrimidine-5-carboxamide]	500 to 1000
COc1ncnc(OC)c1C(=O)Nc1nc(C(F)(F)F)c(-c2cccc(C(F)(F)F)n2)s1 [Example 30, 4,6-dimethoxy-N-{4-(trifluoromethyl)-5-[6-(trifluoromethyl)pyridin-2-yl]-1,3-thiazol-2-yl}pyrimidine-5-carboxamide]	< 50
COc1ncnc(OC)c1C(=O)Nc1nc(C(F)(F)F)c(C2CCCOC2)s1 (single isomer, unassigned) [Example 149, 4,6-dimethoxy-N-{5-[(3S*)-tetrahydro-2H-pyran-3-yl]-4-(trifluoromethyl)-1,3-thiazol-2-yl}pyrimidine-5-carboxamide]	> 1000

From patent publication US20180243298A1, “TRPV3 MODULATORS” (AbbVie Inc., priority 2015, published 2018)
